# Data from publication PMC12655351, “Synthesis and Anticancer Activity Evaluation of New 5-((5-Nitrofuran-2-yl)allylidene)-2-thioxo-4-thiazolidinones” (Pharmaceuticals, 2025).
# Values joined by “and” are separate entries in the source; they are usually repeats but may differ in a detail not shown here. Equal values may be shown once. Read-outs that look alike come from different tables or passages of the source.
# Columns and labels:
# CCRF-CEM = conditions: 48 h
# SR = conditions: 48 h
# NCI-H23 [1] = conditions: for TGI: NCI-H23, 48 h
# LOX IMVI [2] = conditions: 48 h; for growth GP / TGI: LOX IMVI; for growth GP: 10 μM
# MDA-MB-435 [3] = conditions: MDA-MB-435, 48 h
# 786-0 = conditions: 786-0, 48 h
# CAKI-1 [4] = tested on: CAKI-1
# TK-10 [5] = conditions: for TGI: TK-10, 48 h
# HS 578T = conditions: 48 h
# CNS cancer = CNS cancer subpanel
# Ovarian cancer [6] = conditions: Ovarian cancer subpanel
# Breast cancer = Breast cancer subpanel
# K-562 = experiment: cells; conditions: Homo sapiens, K562, 48 h; for GI50: K-562, 48 h; for CC50: read-out: LC50
# MOLT-4 = experiment: cells; conditions: Homo sapiens, MOLT-4, 48 h; for CC50: read-out: LC50, MOLT-4, 48 h
# NCI-H23 [7] = experiment: cells; conditions: Homo sapiens, NCI-H23, 48 h; for CC50: read-out: LC50, NCI-H23, 48 h
# LOX IMVI [8] = experiment: cells; conditions: Homo sapiens, 48 h; for CC50: read-out: LC50, LOX IMVI, 48 h
# MDA-MB-435 [9] = experiment: cells; conditions: Homo sapiens, MDA-MB-435, 48 h
# UACC-257 = experiment: cells; conditions: Homo sapiens, UACC-257, 48 h; for CC50: read-out: LC50, UACC-257, 48 h
# CAKI-1 [10] = experiment: cells; conditions: Homo sapiens, CAKI-1, 48 h
# SN12C = experiment: cells; conditions: Homo sapiens, 48 h
# TK-10 [11] = experiment: cells; conditions: Homo sapiens, TK-10, 48 h; for CC50: read-out: LC50, TK-10, 48 h
# BT-549 = experiment: cells; conditions: Homo sapiens, BT-549, 48 h
# T-47D = experiment: cells; conditions: Homo sapiens, T47D, 48 h; for GI50: T-47D; for CC50: read-out: LC50
# Melanoma = experiment: cells; conditions: Homo sapiens; for GI50: read-out: MG_MID GI50; for CC50: read-out: MG_MID LC50
# Ovarian cancer [12] = experiment: cells; conditions: Homo sapiens; for GI50: read-out: MG_MID GI50; for CC50: read-out: MG_MID LC50
# Renal Cancer = experiment: cells; conditions: Homo sapiens; for GI50: read-out: MG_MID GI50; for CC50: read-out: MG_MID LC50
# A549/ATCC = experiment: NCI-60 SRB screen
# EKVX = experiment: NCI-60 SRB screen; conditions: 48 h; for CC50: read-out: LC50, EKVX, 48 h
# NCI-H266 = experiment: NCI-60 SRB screen; conditions: for GI50 / TGI: NCI-H266, 48 h; for CC50: read-out: LC50, NCI-H266, 48 h
# SF-295 = experiment: NCI-60 SRB screen; conditions: SF-295, 48 h; for CC50: read-out: LC50, SF-295, 48 h
# SNB-75 = experiment: NCI-60 SRB screen; conditions: SNB-75, 48 h; for CC50: read-out: LC50, SNB-75, 48 h
# U251 = experiment: NCI-60 SRB screen
# M14 = experiment: NCI-60 SRB screen; conditions: M14, 48 h
# SK-MEL-2 = experiment: NCI-60 SRB screen; conditions: SK-MEL-2, 48 h; for CC50: read-out: LC50, SK-MEL-2, 48 h
# IGROV1 = experiment: NCI-60 SRB screen; conditions: for CC50: read-out: LC50, IGROV1, 48 h
# Colon cancer = experiment: NCI-60 SRB screen, subpanel; conditions: for MG_MID TGI: Colon cancer subpanel
# HCT-116 = experiment: cells; conditions: Homo sapiens, HCT-116, 48 h
# HT29 = experiment: cells; conditions: Homo sapiens, HT-29, 48 h
# [13] = Homo sapiens, U-251, 48 h, U251, 48 h
# [14] = Homo sapiens, U-251, 48 h, read-out: LC50, U251, 48 h
smiles,measurement,setting,value
"O=C(O)CCN1C(=O)/C(=C/C=C/c2ccc([N+](=O)[O-])o2)SC1=S [12b, 3-((Z)-5-((E)-3-(5-Nitrofuran-2-yl)allylidene)-4-oxo-2-thioxothiazolidin-3-yl)propanoic acid]",TGI,CCRF-CEM,870 nM
same,TGI,SR,1150 nM
same,TGI,NCI-H23 [1],3370 nM
same,growth GP,LOX IMVI [2],-95.70%
same,TGI,LOX IMVI [2],1860 nM
same,TGI,MDA-MB-435 [3],2480 nM
same,TGI,786-0,3540 nM
same,TGI,"CAKI-1 [4]; CAKI-1, 48 h",2740 nM
same,TGI,TK-10 [5],3810 nM
same,TGI,HS 578T,7930 nM
same,MG_MID TGI,CNS cancer,4090 nM
same,MG_MID TGI,Ovarian cancer [6],5840 nM
same,MG_MID TGI,Breast cancer,3640 nM
same,GI50,K-562,340 nM
same,CC50,K-562,> 100000 nM
same,GI50,MOLT-4,580 nM
same,CC50,MOLT-4,> 100000 nM
same,GI50,NCI-H23 [7],1690 nM
same,CC50,NCI-H23 [7],6700 nM
same,GI50,LOX IMVI [8],580 nM
same,CC50,LOX IMVI [8],4340 nM
same,GI50,MDA-MB-435 [9],1160 nM
same,CC50,"MDA-MB-435 [9]; read-out: LC50, MDA-MB-435, 48 h",5320 nM
same,GI50,UACC-257,1810 nM
same,CC50,UACC-257,9210 nM
same,GI50,CAKI-1 [10],1420 nM
same,GI50,SN12C,1070 nM
same,CC50,"SN12C; read-out: LC50, SN12C, 48 h",5040 nM
same,GI50,TK-10 [11],2020 nM
same,CC50,TK-10 [11],7190 nM
same,GI50,BT-549,1350 nM
same,CC50,"BT-549; read-out: LC50, BT-549, 48 h",6130 nM
same,GI50,T-47D,940 nM
same,CC50,T-47D,> 100000 nM
same,GI50,Melanoma,1140 nM
same,CC50,Melanoma,5560 nM
same,GI50,Ovarian cancer [12],2050 nM
same,CC50,Ovarian cancer [12],17700 nM
same,GI50,Renal Cancer,3050 nM
same,CC50,Renal Cancer,11900 nM
same,TGI,A549/ATCC; 48 h,12400 nM
same,GI50,"A549/ATCC; Homo sapiens, A549, 48 h",3210 nM
same,TGI,EKVX,9260 nM
same,GI50,EKVX; Homo sapiens,2690 nM
same,CC50,EKVX; Homo sapiens,31100 nM
same,GI50,"NCI-H266; Homo sapiens, 48 h",2830 nM
same,CC50,"NCI-H266; Homo sapiens, 48 h",79700 nM
same,TGI,NCI-H266,12500 nM
same,GI50,SF-295; Homo sapiens,2170 nM
same,CC50,SF-295; Homo sapiens,16300 nM
same,TGI,SF-295,5210 nM
same,GI50,SNB-75; Homo sapiens,1100 nM
same,CC50,SNB-75; Homo sapiens,14100 nM
same,TGI,SNB-75,3670 nM
same,GI50,U251; [13],1070 nM
same,CC50,U251; [14],5530 nM
same,TGI,"U251; U251, 48 h",2430 nM
same,GI50,M14; Homo sapiens,1480 nM
same,CC50,"M14; Homo sapiens, read-out: LC50, M14, 48 h",6310 nM
same,TGI,M14,3050 nM
same,GI50,SK-MEL-2; Homo sapiens,1440 nM
same,CC50,SK-MEL-2; Homo sapiens,5680 nM
same,TGI,SK-MEL-2,2860 nM
same,GI50,"IGROV1; Homo sapiens, IGROV-1, 48 h, IGROV1, 48 h",1430 nM
same,CC50,"IGROV1; Homo sapiens, IGROV-1, 48 h",5700 nM
same,TGI,"IGROV1; IGROV1, 48 h",2860 nM
same,MG_MID TGI,Colon cancer,2930 nM
"O=C(O)CCCN1C(=O)/C(=C/C=C/c2ccc([N+](=O)[O-])o2)SC1=S [13b, 4-((Z)-5-((E)-3-(5-Nitrofuran-2-yl)allylidene)-4-oxo-2-thioxothiazolidin-3-yl)butanoic acid]",GI50,CCRF-CEM,120 nM
same,TGI,CCRF-CEM,820 nM and 780 nM
same,growth GP,"NCI-H23 [1]; NCI-H23, 10 μM, 48 h",-93.85%
same,TGI,NCI-H23 [1],3090 nM and 2040 nM
same,CC50,"NCI-H23 [1]; human, 48 h",5700 nM
same,growth GP,LOX IMVI [2],-96.12%
same,TGI,LOX IMVI [2],420 nM and 390 nM
same,CC50,LOX IMVI [2]; human,810 nM
same,GI50,786-0,280 nM
same,TGI,786-0,1300 nM and 900 nM
same,growth GP,"CAKI-1 [4]; CAKI-1, 10 μM, 48 h",-96.66%
same,GI50,"CAKI-1 [4]; CAKI-1, 48 h",770 nM
same,TGI,"CAKI-1 [4]; CAKI-1, 48 h",1970 nM and 2040 nM
same,growth GP,"TK-10 [5]; TK-10, 10 μM, 48 h",-97.38%
same,TGI,TK-10 [5],3180 nM and 2030 nM
same,CC50,"TK-10 [5]; human, 48 h",4770 nM
same,MG_MID TGI,CNS cancer,2090 nM
same,MG_MID TGI,Ovarian cancer [6],2990 nM
same,MG_MID TGI,Breast cancer,2150 nM
same,GI50,K-562,160 nM
same,CC50,K-562,> 100000 nM
same,GI50,MOLT-4,410 nM
same,CC50,MOLT-4,8990 nM
same,CC50,NCI-H23 [7],6240 nM
same,GI50,HCT-116,310 nM
same,GI50,"HT29; HT29, 48 h",450 nM
same,CC50,"HT29; read-out: LC50, HT29, 48 h",5440 nM
same,GI50,LOX IMVI [8],190 nM
same,CC50,LOX IMVI [8],920 nM
same,CC50,UACC-257,6360 nM
same,GI50,CAKI-1 [10],670 nM
same,GI50,SN12C,340 nM
same,CC50,TK-10 [11],5840 nM
same,GI50,T-47D,340 nM
same,CC50,T-47D,> 100000 nM
same,GI50,Melanoma,590 nM
same,CC50,Melanoma,3600 nM
same,GI50,Ovarian cancer [12],960 nM
same,CC50,Ovarian cancer [12],13200 nM
same,GI50,Renal Cancer,990 nM
same,CC50,Renal Cancer,7480 nM
same,GI50,A549/ATCC; 48 h,780 nM
same,GI50,"A549/ATCC; Homo sapiens, A549, 48 h",1360 nM
same,GI50,EKVX,1050 nM
same,TGI,EKVX,4240 nM and 2520 nM
same,GI50,EKVX; Homo sapiens,1830 nM
same,CC50,EKVX; Homo sapiens,9840 nM
same,GI50,"NCI-H266; Homo sapiens, 48 h",2790 nM
same,CC50,"NCI-H266; Homo sapiens, 48 h",76100 nM
same,GI50,NCI-H266,1650 nM
same,TGI,NCI-H266,11900 nM and 9780 nM
same,CC50,SF-295; Homo sapiens,6310 nM
same,TGI,SF-295,3240 nM and 2070 nM
same,GI50,SNB-75; Homo sapiens,380 nM
same,CC50,SNB-75; Homo sapiens,8730 nM
same,GI50,SNB-75,320 nM
same,TGI,SNB-75,1990 nM and 1370 nM
same,GI50,U251; [13],370 nM
same,CC50,U251; [14],4230 nM
same,GI50,"U251; U251, 48 h",190 nM
same,CC50,"U251; read-out: LC50, U251, 48 h",3160 nM
same,CC50,SK-MEL-2; Homo sapiens,6120 nM
same,CC50,"IGROV1; Homo sapiens, IGROV-1, 48 h",5140 nM
same,MG_MID TGI,Colon cancer,1350 nM
same,GI50,"Colon cancer; Homo sapiens, read-out: MG_MID GI50",520 nM
same,CC50,"Colon cancer; Homo sapiens, read-out: MG_MID LC50",11900 nM
